Results on eight molecules are retold here after patent US9422338B2 (EpoDose LLC, priority 2011, dated 2016).

For this test, the target named is T1, EPOR (erythropoietin receptor), human recombinant, NSO cells (Homo sapiens, UniProt P19235).
T1 construct: host or cells: NSO cells
T1 sequence (P19235 25-250 limits assumed): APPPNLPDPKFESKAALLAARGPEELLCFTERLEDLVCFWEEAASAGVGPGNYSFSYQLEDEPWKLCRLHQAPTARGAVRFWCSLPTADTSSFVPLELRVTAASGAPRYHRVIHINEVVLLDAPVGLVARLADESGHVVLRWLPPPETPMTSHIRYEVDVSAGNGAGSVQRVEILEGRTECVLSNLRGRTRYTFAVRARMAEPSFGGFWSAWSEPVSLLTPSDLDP
Briefly: EPOR radioligand binding assay ([125I] Erythropoietin competition). The method, then:
IC50 values were determined by a non-linear, least squares regression analysis using MATHIQ™ (computer software for integrating mathematical functions into new or existing software). […] Where presented, the Hill coefficient (nH), defining the slope of the competitive binding curve, was calculated using MATHIQ™.

Setting [1] is: Example 1, mimetics varied in N-end, loop and mid sequences.
[2] abbreviates: Example 2, mimetics varied in loop, mid and C-end.

In general, Ki refers to the dissociation constant of the complex between target and ligand, obtained from inhibition or displacement. For orientation: IC50 means the concentration that gives 50% inhibition. With `CSCC[C@@H]1NC(=O)[C@H](CCCNC(=N)N)NC(=O)C(NC(=O)[C@H](CC(C)C)NC(=O)[C@H](Cc2ccc(O)cc2)NC(=O)[C@H](CC(N)=O)NC(C)=O)CCOCC(C(=O)N[C@@H](CCCCN)C(=O)N2CCC[C@H]2C(=O)NCCCCC(=O)NCCCCC(NC(=O)[C@@H]2CCCN2C(=O)[C@H](CCCCN)NC(=O)C2COCCC(NC(=O)[C@H](CC(C)C)NC(=O)[C@H](Cc3ccc(O)cc3)NC(=O)[C@H](CC(N)=O)NC(C)=O)C(=O)N[C@@H](CCCNC(=N)N)C(=O)N[C@@H](CCSC)C(=O)N[C@@H](CCc3ccccc3)C(=O)N[C@@H](Cc3c[nH]c4ccccc34)C(=O)N[C@@H](C(C)C)C(=O)N2)C(N)=O)NC(=O)[C@H](C(C)C)NC(=O)[C@H](Cc2c[nH]c3ccccc23)NC(=O)[C@H](CCc2ccccc2)NC1=O` (stereo partly drawn) [AC-0005-023], the Ki under setting [1] worked out at 17 nM. Besides, the IC50 (Example 4, fourth table) stood at 35 nM.
For the molecule `CSCC[C@@H]1NC(=O)[C@H](CCCNC(=N)N)NC(=O)C(NC(=O)[C@H](CC(C)C)NC(=O)[C@H](Cc2ccc(O)cc2)NC(=O)[C@H](CC(N)=O)NC(C)=O)CCOCC(C(=O)N[C@@H](CCCCN)C(=O)N2CCC[C@H]2C(=O)NCCCCC(=O)NCCCCC(NC(=O)[C@@H]2CCCN2C(=O)[C@H](CCCCN)NC(=O)C2COCCC(NC(=O)[C@H](CC(C)C)NC(=O)[C@H](Cc3ccc(O)cc3)NC(=O)[C@H](CC(N)=O)NC(C)=O)C(=O)N[C@@H](CCCNC(=N)N)C(=O)N[C@@H](CCSC)C(=O)NCCC(=O)N[C@@H](Cc3c[nH]c4ccccc34)C(=O)N[C@@H](C(C)C)C(=O)N2)C(N)=O)NC(=O)[C@H](C(C)C)NC(=O)[C@H](Cc2c[nH]c3ccccc23)NC(=O)CCNC1=O` (stereo partly drawn) [AC-0005-019], under setting [1], the Ki came to 27 nM. Moreover, under “Example 4, second table”, the IC50 was 57 nM.
In the case of `CSCC[C@@H]1NC(=O)[C@H](CCCNC(=N)N)NC(=O)C(NC(=O)[C@H](CC(C)C)NC(=O)[C@H](Cc2ccc(O)cc2)NC(=O)[C@H](CC(N)=O)NC(C)=O)CCOCC(C(=O)N[C@@H](CCCCN)C(=O)N2CCC[C@H]2C(=O)NCCCCC(=O)NCCCCC(NC(=O)[C@@H]2CCCN2C(=O)[C@H](CCCCN)NC(=O)C2COCCC(NC(=O)[C@H](CC(C)C)NC(=O)[C@H](Cc3ccc(O)cc3)NC(=O)[C@H](CC(N)=O)NC(C)=O)C(=O)N[C@@H](CCCNC(=N)N)C(=O)N[C@@H](CCSC)C(=O)N[C@@H](CC(C)C)C(=O)N[C@@H](Cc3c[nH]c4ccccc34)C(=O)N[C@@H](C(C)C)C(=O)N2)C(N)=O)NC(=O)[C@H](C(C)C)NC(=O)[C@H](Cc2c[nH]c3ccccc23)NC(=O)[C@H](CC(C)C)NC1=O` (stereo partly drawn) [AC-0005-024], the Ki under setting [1] worked out at 34 nM. The IC50 (Example 4, fourth table) was 72 nM.
In the same order, the values of `CSCC[C@@H]1NC(=O)[C@H](CCCNC(=N)N)NC(=O)C(NC(=O)[C@H](CC(C)C)NC(=O)[C@H](Cc2ccc(O)cc2)NC(=O)[C@H](CC(N)=O)NC(C)=O)CCOCC(C(=O)N[C@@H](CCCCNC(=N)N)C(=O)N2CCC[C@H]2C(=O)NCCCCC(=O)NCCCCC(NC(=O)[C@@H]2CCCN2C(=O)[C@H](CCCCNC(=N)N)NC(=O)C2COCCC(NC(=O)[C@H](CC(C)C)NC(=O)[C@H](Cc3ccc(O)cc3)NC(=O)[C@H](CC(N)=O)NC(C)=O)C(=O)N[C@@H](CCCNC(=N)N)C(=O)N[C@@H](CCSC)C(=O)NCC(=O)N[C@@H](Cc3c[nH]c4ccccc34)C(=O)N[C@@H](C(C)C)C(=O)N2)C(N)=O)NC(=O)[C@H](C(C)C)NC(=O)[C@H](Cc2c[nH]c3ccccc23)NC(=O)CNC1=O` (stereo partly drawn) [AC-0005-021] are 12 nM and 25 nM.
In the same order, the values of `CSCC[C@@H]1NC(=O)[C@H](CCCNC(=N)N)NC(=O)C(NC(=O)[C@H](CC(C)C)NC(=O)[C@H](Cc2ccc(O)cc2)NC(=O)[C@H](CC(N)=O)NC(C)=O)CCOCC(C(=O)N[C@@H](CCCNC(=N)N)C(=O)N2CCC[C@H]2C(=O)NCCCCC(=O)NCCCCC(NC(=O)[C@@H]2CCCN2C(=O)[C@H](CCCNC(=N)N)NC(=O)C2COCCC(NC(=O)[C@H](CC(C)C)NC(=O)[C@H](Cc3ccc(O)cc3)NC(=O)[C@H](CC(N)=O)NC(C)=O)C(=O)N[C@@H](CCCNC(=N)N)C(=O)N[C@@H](CCSC)C(=O)NCC(=O)N[C@@H](Cc3c[nH]c4ccccc34)C(=O)N[C@@H](C(C)C)C(=O)N2)C(N)=O)NC(=O)[C@H](C(C)C)NC(=O)[C@H](Cc2c[nH]c3ccccc23)NC(=O)CNC1=O` (stereo partly drawn) [AC-0005-020] are 44 nM and 93 nM.
With `CSCC[C@@H]1NC(=O)[C@H](CCCNC(=N)N)NC(=O)C(NC(=O)[C@H](CC(C)C)NC(=O)[C@H](Cc2ccc(O)cc2)NC(=O)[C@H](CC(N)=O)NC(C)=O)CCOCC(C(=O)N[C@@H](CCCCN)C(=O)N2CCC[C@H]2C(=O)NC(CCCCNC(=O)CCCC(NC(=O)[C@@H]2CCCN2C(=O)[C@H](CCCCN)NC(=O)C2COCCC(NC(=O)[C@H](CC(C)C)NC(=O)[C@H](Cc3ccc(O)cc3)NC(=O)[C@H](CC(N)=O)NC(C)=O)C(=O)N[C@@H](CCCNC(=N)N)C(=O)N[C@@H](CCSC)C(=O)N3CCC[C@H]3C(=O)N[C@@H](Cc3ccc4ccccc4c3)C(=O)N[C@@H](C(C)C)C(=O)N2)C(=O)N[C@@H](CCCNC(=N)N)C(N)=O)C(=O)N[C@@H](CCCNC(=N)N)C(N)=O)NC(=O)[C@H](C(C)C)NC(=O)[C@H](Cc2ccc3ccccc3c2)NC(=O)[C@@H]2CCCN2C1=O` (stereo partly drawn) [AC-0005-061], the Ki under setting [2] was 27.7 nM. The IC50 (Example 4, sixth table) stood at 58.5 nM.
Turning to `CSCC[C@@H]1NC(=O)[C@H](CCCNC(=N)N)NC(=O)C(NC(=O)[C@H](CC(C)C)NC(=O)[C@H](Cc2ccc(O)cc2)NC(=O)[C@H](CC(N)=O)NC(C)=O)CCOCC(C(=O)N[C@@H](CCCCN)C(=O)N2CCC[C@H]2C(=O)NCCCCC(=O)NCCCCC(NC(=O)[C@@H]2CCCN2C(=O)[C@H](CCCCN)NC(=O)C2COCCC(NC(=O)[C@H](CC(C)C)NC(=O)[C@H](Cc3ccc(O)cc3)NC(=O)[C@H](CC(N)=O)NC(C)=O)C(=O)N[C@@H](CCCNC(=N)N)C(=O)N[C@@H](CCSC)C(=O)N3CCC[C@H]3C(=O)N[C@@H](Cc3c[nH]c4ccccc34)C(=O)N[C@@H](C(C)C)C(=O)N2)C(N)=O)NC(=O)[C@H](C(C)C)NC(=O)[C@H](Cc2c[nH]c3ccccc23)NC(=O)[C@@H]2CCCN2C1=O` (stereo partly drawn) [AC-0005-026], the inhibition constant Ki runs as follows: under setting [1], 5.9 nM; under setting [2], 4.3 nM; (Example 3, Cheng-Prusoff) 6.39 nM; (Example 4, sixth table) 4.3 nM. Moreover, the IC50 reads like this: (Example 3) 13.5 nM; (Example 4, fifth table) 12.4 nM; (Example 4, fourth table) 20 nM; (Example 4, sixth table) 9 nM.
For `CSCC[C@@H]1NC(=O)[C@H](Cc2c[nH]cn2)NC(=O)C(NC(=O)[C@H](CC(C)C)NC(=O)[C@H](Cc2ccc(O)cc2)NC(=O)[C@H](CC(N)=O)NC(C)=O)CCOCC(C(=O)N[C@@H](CCCCNC(=N)N)C(=O)N2CCC[C@H]2C(=O)NCCCCC(=O)NCCCCC(NC(=O)[C@@H]2CCCN2C(=O)[C@H](CCCCNC(=N)N)NC(=O)C2COCCC(NC(=O)[C@H](CC(C)C)NC(=O)[C@H](Cc3ccc(O)cc3)NC(=O)[C@H](CC(N)=O)NC(C)=O)C(=O)N[C@@H](Cc3c[nH]cn3)C(=O)N[C@@H](CCSC)C(=O)N3CCC[C@H]3C(=O)N[C@@H](Cc3c[nH]c4ccccc34)C(=O)N[C@@H](C(C)C)C(=O)N2)C(N)=O)NC(=O)[C@H](C(C)C)NC(=O)[C@H](Cc2c[nH]c3ccccc23)NC(=O)[C@@H]2CCCN2C1=O` (stereo partly drawn) [AC-0005-054], the Ki reads like this: under setting [1], 15.5 nM; (Example 3, Cheng-Prusoff) 30.9 nM. The IC50 (Example 3) turned out to be 65.1 nM and the IC50 (Example 4, fifth table) turned out to be 33 nM.
